Results: US10828317B2, “Method of treating bacterial infections” (priority 2016, dated 2020)

Experiments:
E. coli EN0235 = test: microbe, parasite or virus in culture; type: cell-based; conditions: combination FdUrd+trimethoprim+uridine, Table 19
E. coli EN001 = test: MIC, WT (EN001 = EN0001, ATCC 25922); type: cell-based, Escherichia coli; conditions: combination FdUrd+trimethoprim+uridine, Table 19
E. coli EN012 = test: MIC, WT; type: cell-based, Escherichia coli; conditions: combination FdUrd+trimethoprim+uridine, Table 8
K. pneumoniae EN0144 = test: MIC, MBL (VIM-1); type: cell-based; conditions: combination FdUrd+trimethoprim+uridine, Table 19
K. pneumoniae EN0244 = test: MIC, colistinR; type: cell-based; conditions: combination FdUrd+trimethoprim+uridine, Table 19
K. pneumoniae EN0140 = test: MIC, AmpC (DHA-1); type: cell-based; conditions: combination FdUrd+trimethoprim+uridine, Table 19
Citrobacter sp. EN0465 = test: MIC; type: cell-based; conditions: combination FdUrd+trimethoprim+uridine, Table 8
E. aerogenes EN0461 = test: MIC; type: cell-based, Enterobacter aerogenes; conditions: combination FdUrd+trimethoprim+uridine, Table 8
S. epidermidis EN0456 = test: MIC; type: cell-based, Staphylococcus epidermidis; conditions: combination FdUrd+trimethoprim+uridine, Table 8
P. aeruginosa EN014 = test: MIC, WT; type: cell-based, Pseudomonas aeruginosa; conditions: combination FdUrd+trimethoprim+uridine, Table 8
E. coli EN003 = test: microbe, parasite or virus in culture; type: cell-based, Escherichia coli; conditions: combination FdUrd+trimethoprim+uridine, Table 8
K. pneumoniae EN0463 = test: MIC; type: cell-based, Klebsiella pneumoniae; conditions: combination FdUrd+trimethoprim+uridine, Table 8
A. baumannii EN007 = test: MIC, WT (EN007 = EN0007); type: cell-based, Acinetobacter baumannii; conditions: combination FdUrd+trimethoprim+uridine
[1] = system: A. pittii or A. nosocomialis EN0180; test: MIC; type: cell-based, Acinetobacter pittii or nosocomialis; conditions: combination FdUrd+trimethoprim+uridine, Table 8
E. coli EN0134 = test: MIC, AmpC (CMY-4); type: cell-based; conditions: combination FdUrd+trimethoprim+uridine, Table 19
P. aeruginosa EN0459 = test: MIC; type: cell-based, Pseudomonas aeruginosa; conditions: combination FdUrd+trimethoprim+uridine, Table 8
K. pneumoniae EN0245 = test: MIC, colistinR; type: cell-based; conditions: combination FdUrd+trimethoprim+uridine, Table 19
S. marescens EN0454 = test: MIC; type: cell-based, Serratia marescens; conditions: combination FdUrd+trimethoprim+uridine, Table 8
K. pneumoniae EN006 = test: MIC, WT (EN006 = EN0006, ATCC 13883); type: cell-based, Klebsiella pneumoniae; conditions: combination FdUrd+trimethoprim+uridine
P. aeruginosa EN0422 = test: MIC; type: cell-based, Pseudomonas aeruginosa; conditions: combination FdUrd+trimethoprim+uridine, Table 8
P. aeruginosa EN004 = test: MIC, WT (EN004 = EN0004); type: cell-based, Pseudomonas aeruginosa; conditions: combination FdUrd+trimethoprim+uridine
P. mirabilis EN0457 = test: MIC; type: cell-based, Proteus mirabilis; conditions: combination FdUrd+trimethoprim+uridine, Table 8
S. flexneri APV00907 = test: MIC and antibiogram; type: cell-based; conditions: combination FdUrd+trimethoprim+uridine, Table 22A
Description: Inhibition of Heliobacter is important in view of increasing resistance and its association to gastric cancer.

P. aeruginosa EN0460 = test: MIC; type: cell-based, Pseudomonas aeruginosa; conditions: combination FdUrd+trimethoprim+uridine, Table 8
E. coli EN002 = test: MIC, DtoIC; type: cell-based, Escherichia coli; conditions: combination FdUrd+trimethoprim+uridine, Table 8
M. luteus EN0455 = test: MIC; type: cell-based, Micrococcus luteus; conditions: combination FdUrd+trimethoprim+uridine, Table 8
P. mirabilis ST19 EN0445 = test: MIC; type: cell-based, Proteus mirabilis; conditions: combination FdUrd+trimethoprim+uridine, Table 8
E. coli EN0137 = test: MIC, ESBL (CTX-M-15); type: cell-based; conditions: combination FdUrd+trimethoprim+uridine, Table 19
K. pneumoniae EN0249 = test: MIC, colistinR; type: cell-based; conditions: combination FdUrd+trimethoprim+uridine, Table 19
E. coli B EN0458 = test: MIC; type: cell-based, Escherichia coli B; conditions: combination FdUrd+trimethoprim+uridine, Table 8
K. pneumoniae EN0145 = test: MIC, KPC-2; type: cell-based; conditions: combination FdUrd+trimethoprim+uridine, Table 19
S. sonnei APV00908 = test: MIC and antibiogram; type: cell-based; conditions: combination FdUrd+trimethoprim+uridine, Table 22A
E. coli EN0136 = test: MIC, ESBL (CTX-M-2); type: cell-based; conditions: combination FdUrd+trimethoprim+uridine, Table 19

For O=c1[nH]c(=O)n([C@H]2C[C@H](O)[C@@H](CO)O2)cc1F [FdUrd, Fluorodeoxyuridine], the MIC (E. coli EN0235) was 0.06 µg/mL, the MIC (E. coli EN001) was 0.25 µg/mL and the MIC (E. coli EN012) was 0.032 µg/mL. The MIC (K. pneumoniae EN0144) was >4 µg/mL, the MIC (K. pneumoniae EN0244) was >4 µg/mL and the MIC (K. pneumoniae EN0140) was >4 µg/mL. For the same compound, the MIC (Citrobacter sp. EN0465) was >4 µg/mL, the MIC (E. aerogenes EN0461) was 1 µg/mL and the MIC (S. epidermidis EN0456) was <0.008 µg/mL. For the same compound, the MIC (P. aeruginosa EN014) was >4 µg/mL, the MIC (E. coli EN003) was 0.016 µg/mL and the MIC (K. pneumoniae EN0463) was 0.25 µg/mL. For the same compound, the MIC (A. baumannii EN007; Table 8) was >4 µg/mL, the MIC (A. baumannii EN007; Table 19) was >4 µg/mL and the MIC [1] was 4 µg/mL. For the same compound, the MIC (E. coli EN0134) was >4 µg/mL, the MIC (P. aeruginosa EN0459) was >4 µg/mL and the MIC (K. pneumoniae EN0245) was >4 µg/mL. The MIC (S. marescens EN0454) was >4 µg/mL, the MIC (K. pneumoniae EN006; Table 8) was 0.5 µg/mL and the MIC (K. pneumoniae EN006; Table 19) was 0.5 µg/mL. For the same compound, the MIC (P. aeruginosa EN0422) was >4 µg/mL, the MIC (P. aeruginosa EN004; Table 8) was >4 µg/mL and the MIC (P. aeruginosa EN004; Table 19) was >4 µg/mL. For the same compound, the MIC (P. mirabilis EN0457) was 1 µg/mL, the MIC (S. flexneri APV00907) was >4 µg/mL and the MIC (P. aeruginosa EN0460) was >4 µg/mL. It also gave an MIC (E. coli EN002) of 0.032 µg/mL, an MIC (M. luteus EN0455) of 2 µg/mL and an MIC (P. mirabilis ST19 EN0445) of 0.5 µg/mL. For the same compound, the MIC (E. coli EN0137) was >4 µg/mL, the MIC (K. pneumoniae EN0249) was >4 µg/mL and the MIC (E. coli B EN0458) was 0.032 µg/mL. For the same compound, the MIC (K. pneumoniae EN0145) was >4 µg/mL, the MIC (S. sonnei APV00908) was >4 µg/mL and the MIC (E. coli EN0136) was 1 µg/mL.
